Series [1] concerns the target human mGluR5a receptor (Homo sapiens, UniProt P41594). Put plainly: Cell-based functional assay (Ca2+ mobilization, FDSS), potentiation of glutamate EC20 response. As to conditions: H10H cell line; for Emax: maximum % effect in the concentration-response curve as percent of maximal glutamate response, glutamate EC20; for EC50: potentiation in presence of glutamate EC20, concentration in mol/L. The text has this:
Human mGluR5a cDNA in pCMV6-XL6 mammalian expression plasmid was purchased from OriGene Technologies, Inc. (catalogue number SC326357) and subcloned into pcDNA3.1(−). Human embryonic kidney (HEK)293A cells were then transfected with human mGluR5a pcDNA3.1(−) using LipofectAmine-2000 (Invitrogen) and monoclones were selected and tested for functional response using a Ca^2+ mobilization assay. Monoclones were named for the species (“H” for human) plus the location on the plate (e.g. “10H”).
HEK cells transfected with the human mGluR5a receptor (H10H or H12H cell line) were plated at 15,000 cells/well in clear-bottomed poly-D-lysinecoated assay plates (BD Falcon) in glutamate-glutamine-free growth medium and incubated overnight at 37° C. and 5% CO2. Cell-lines used were either the H10H or H12H cell-lines expressing the human mGluR5 receptor. The following day, the growth medium was removed and the cells were washed with assay buffer containing 1× Hank's balanced salt solution (Invitrogen, Carlsbad, Calif.), 20 mM HEPES, 2.5 mM probenecid, pH 7.4 and left with 20 μL of this reagent. Following this step, the cells were loaded with calcium indicator dye, fluo-4 AM, to a final concentration of 2 μM and incubated for 40-45 min at 37° C. The dye solution was removed and replaced with assay buffer. Cell plates were held for 10-15 min at room temperature and were then loaded into the Functional Drug Screening System 6000 (FDSS 6000, Hamamatsu, Japan).
After establishment of a fluorescence baseline for about 3 seconds, the compounds of the present invention were added to the cells, and the response in cells was measured. 2.3 minutes later an EC20 concentration of the mGluR5 receptor agonist glutamate was added to the cells, and the response of the cells was measured for about 1.7 minutes. All test compounds were dissolved and diluted to a concentration of 10 mM in 100% DMSO and then serially diluted into assay buffer for a 2× stock solution in 0.6% DMSO; stock compounds were then added to the assay for a final DMSO concentration of 0.3% after the first addition to the assay well. Calcium fluorescence measures were recorded as fold over basal fluorescence; raw data was then normalized to the maximal response to glutamate. Potentiation of the agonist response of the mGluR5 receptor in the present invention was observed as an increase in response to submaximal concentrations of glutamate in the presence of compound compared to the response to glutamate in the absence of compound.
The concentration-response curves of compounds of the present invention, obtained in the presence of EC20 of mGluR5 receptor agonist glutamate to determine positive allosteric modulation, were generated using Microsoft Excel with IDBS XLFit add-ins. The raw data file containing all time points was used as the data source in the analysis template. This was saved by the FDSS as a tab-delimited text file. Data were normalized using a static ratio function (F/F0) for each measurement of the total 350 values per well divided by each well's initial value. Data was then reduced as to peak amplitudes (Max Initial Min) using a time range that starts approximately 1 second after the glutamate EC20 addition and continues for approximately 40 seconds. This is sufficient time to capture the peak amplitude of the cellular Calcium response. Individual amplitudes were expressed as % EMax by multiplying each amplitude by 100 and then dividing the product by the mean of the amplitudes derived from the glutamate ECMax-treated wells. pEC50 values for test compounds were generated by fitting the normalized values versus the log of the test compound concentration (in mol/L) using a 4 parameter logistic equation where none of the parameters were fixed. Each of the three values collected at each concentration of test compound were weighted evenly. Individual values falling outside the 95% prediction limits of the curve fit were automatically excluded from the fit. […]

Chain of human mGluR5a receptor (P41594 21-1180 isoform P41594-2 limits assumed): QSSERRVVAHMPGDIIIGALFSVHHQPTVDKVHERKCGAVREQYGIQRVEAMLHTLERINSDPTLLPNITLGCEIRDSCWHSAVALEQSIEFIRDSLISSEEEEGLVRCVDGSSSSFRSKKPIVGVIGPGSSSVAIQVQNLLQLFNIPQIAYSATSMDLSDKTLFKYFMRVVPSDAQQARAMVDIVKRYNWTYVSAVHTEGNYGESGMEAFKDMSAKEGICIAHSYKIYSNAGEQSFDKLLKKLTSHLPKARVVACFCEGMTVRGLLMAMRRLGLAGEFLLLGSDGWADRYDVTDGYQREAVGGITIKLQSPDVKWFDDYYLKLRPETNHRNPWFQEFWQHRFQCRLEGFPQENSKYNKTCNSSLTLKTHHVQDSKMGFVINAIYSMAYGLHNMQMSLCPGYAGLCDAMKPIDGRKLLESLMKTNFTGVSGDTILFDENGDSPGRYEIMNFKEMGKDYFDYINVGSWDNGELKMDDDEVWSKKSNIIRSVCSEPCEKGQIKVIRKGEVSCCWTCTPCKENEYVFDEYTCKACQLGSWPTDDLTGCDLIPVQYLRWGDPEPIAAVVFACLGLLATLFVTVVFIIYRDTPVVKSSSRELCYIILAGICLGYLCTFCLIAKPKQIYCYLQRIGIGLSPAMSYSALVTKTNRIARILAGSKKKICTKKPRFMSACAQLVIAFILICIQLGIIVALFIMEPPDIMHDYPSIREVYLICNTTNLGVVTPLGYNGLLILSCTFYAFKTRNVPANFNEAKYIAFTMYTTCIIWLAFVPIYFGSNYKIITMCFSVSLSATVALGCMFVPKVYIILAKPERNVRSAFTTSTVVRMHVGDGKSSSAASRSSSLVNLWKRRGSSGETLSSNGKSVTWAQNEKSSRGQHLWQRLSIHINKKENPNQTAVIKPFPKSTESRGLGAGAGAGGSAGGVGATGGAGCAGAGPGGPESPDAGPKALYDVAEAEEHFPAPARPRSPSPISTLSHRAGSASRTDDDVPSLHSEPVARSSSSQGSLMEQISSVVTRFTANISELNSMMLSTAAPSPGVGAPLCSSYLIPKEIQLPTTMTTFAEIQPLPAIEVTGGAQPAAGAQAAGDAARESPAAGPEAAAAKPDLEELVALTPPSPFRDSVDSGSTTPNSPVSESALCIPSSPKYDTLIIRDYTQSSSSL

`COc1c(Cl)cccc1CN1CCn2nc(OCc3ccccc3)cc2C1=O` [Example B57, 2-(benzyloxy)-5-(3-chloro-2-methoxybenzyl)-6,7-dihydropyrazolo[1,5-a]pyrazin-4(5H)-one] came in with a melting point of 232.7 °C. In series [1], the maximum response (Emax) was determined as 42% and the EC50 was 75.9 nM.

Turning to `O=C1c2cc(OCc3ccccn3)nn2CCN1c1ccc(F)cc1` [Example B34], in series [1], the maximum response (Emax) is 23% and the EC50 is > 30200 nM.

Take `COc1nccc(N2CCn3nc(OCc4ccccc4)cc3C2=O)n1` [Example B2, 2-(benzyloxy)-5-(2-methoxypyrimidin-4-yl)-6,7-dihydropyrazolo[1,5-a]pyrazin-4(5H)-one]: the melting point was 160.6 °C. In series [1], the Emax came out at 57% and the EC50 is 661 nM.

In the case of `COc1cccc(CN2CCn3nc(OCc4ccccc4)cc3C2=O)c1Cl` [Example B67], in series [1], the Emax was determined as 63% and the concentration giving a half-maximal response (EC50) was 115 nM.

In turn, `Cc1cccc(COc2cc3n(n2)CCN(c2ccc(F)cc2)C3=O)n1` [Example B36] showed a melting point of 158.5 °C. In addition, in series [1], the maximal response (Emax) was 27% and the 50% effective concentration (EC50) was > 30200 nM.

For the molecule `O=C1c2cc(OCc3ccccc3)nn2CCN1c1ccc(F)cc1` [Example B1, 2-(benzyloxy)-5-(4-fluorophenyl)-6,7-dihydropyrazolo[1,5-a]pyrazin-4(5H)-one], in series [1], the maximal effect (Emax) stood at 54% and the EC50 is 182 nM.

As for `C[C@@H]1Cn2nc(OCc3ccccc3)cc2C(=O)N1Cc1ccccc1` [Example B61], in series [1], the maximum response (Emax) stood at 59% and the concentration for a half-maximal effect (EC50) is 257 nM.

`COc1cc(N2CCn3nc(OCc4ccccc4)cc3C2=O)ccc1F` [Example B8] displayed a melting point of 145.3 °C. In series [1], the Emax is 45% and the 50% effective concentration (EC50) was 132 nM.

With `O=C1c2cc(OCc3ccccc3)nn2CCN1CC1CCC1` [Example B56], in series [1], the Emax was 52% and the half-maximal effective concentration (EC50) is 1070 nM.

The molecule `O=C1c2cc(OCc3ccccc3)nn2CCN1Cc1ccccc1` [Example B59] came in with a melting point of 103.8 °C. In series [1], the Emax is 36% and the concentration for a half-maximal effect (EC50) is 87.1 nM.

Take `COc1nc(N2CCn3nc(OCc4ccccc4)cc3C2=O)ncc1F` [Example B21]: the melting point turned out to be 223 °C. In series [1], the maximum response (Emax) is 55% and the EC50 was 251 nM.

`O=C1c2cc(OCc3ccccc3)nn2CCN1c1cccc(F)c1` [Example B5]: the melting point is 131.5 °C. Further, in series [1], the maximum response (Emax) turned out to be 44% and the half-maximal effective concentration (EC50) is 115 nM.

In turn, `N#Cc1cccc(COc2cc3n(n2)CCN(c2ccc(F)cc2)C3=O)c1` [Example B27] gave a melting point of 147.9 °C. Besides, in series [1], the maximal effect (Emax) was determined as 31% and the concentration giving a half-maximal response (EC50) is 148 nM.

`O=C1c2cc(OCc3ccccc3)nn2CCN1CC1CC1(F)F` (centres unmarked) [Example B72] registered a melting point of 107.4 °C. Besides, in series [1], the Emax came out at 21% and the concentration giving a half-maximal response (EC50) was > 30200 nM.

In the case of `O=C1c2cc(OCc3ccccc3)nn2CCN1c1cccnc1` [Example B12], the melting point came to 147.8 °C. Moreover, in series [1], the maximal response (Emax) turned out to be 17% and the EC50 was > 30200 nM.

`O=C1c2cc(OCc3ccccc3)nn2CCCN1CC1CC1(F)F` (centres unmarked) [Example B73]: in series [1], the maximal effect (Emax) is 20% and the EC50 was > 30200 nM.

For the molecule `COc1ccc(COc2cc3n(n2)CCN(c2ccc(F)cc2)C3=O)cc1` [Example B30], the melting point was found to be 164.6 °C. Besides, in series [1], the maximum response (Emax) worked out at 28% and the EC50 is > 30200 nM.

In the case of `Cc1cc(N2CCn3nc(OCc4ccccc4)cc3C2=O)ccc1F` [Example B7], the melting point was 209.8 °C. Besides, in series [1], the Emax stood at 47% and the 50% effective concentration (EC50) is 102 nM.

As to `O=C1c2cc(OCc3cccnc3)nn2CCN1c1ccc(F)cc1` [Example B35], in series [1], the Emax worked out at 12% and the EC50 was > 30200 nM.

For `O=C1c2cc(OCc3ccncc3)nn2CCN1c1ccc(F)cc1` [Example B31], the melting point was 172.9 °C. In series [1], the maximal response (Emax) was 26% and the concentration giving a half-maximal response (EC50) was > 30200 nM.

On to `COc1cccc(F)c1CN1CCn2nc(OCc3ccccc3)cc2C1=O` [Example B70], for which the melting point was 162.2 °C. Moreover, in series [1], the Emax stood at 52% and the concentration giving a half-maximal response (EC50) was 427 nM.

Turning to `COc1cccc(CN2CCn3nc(OCc4ccccc4)cc3C2=O)c1F` [Example B66], in series [1], the maximal response (Emax) worked out at 63% and the EC50 was 363 nM.

Regarding `Cc1cccc(N2CCn3nc(OCc4ccccc4)cc3C2=O)n1` [Example B14], the melting point was 152.1 °C. In addition, in series [1], the maximum response (Emax) is 53% and the 50% effective concentration (EC50) was 174 nM.

Turning to `O=C1c2cc(OCc3ccccc3)nn2CCN1CC1CC1` [Example B44, 2-(benzyloxy)-5-(cyclopropylmethyl)-6,7-dihydropyrazolo[1,5-a]pyrazin-4(5H)-one], in series [1], the Emax is 26% and the EC50 was ≥ 30200 nM.

The molecule `O=C1c2cc(OCc3ccccc3)nn2CCN1c1ccccn1` [Example B11] yielded a melting point of 153.5 °C. In series [1], the Emax stood at 25% and the EC50 was > 10000 nM.

Regarding `Cc1cc(N2CCn3nc(OCc4ccccc4)cc3C2=O)ncc1F` [Example B18], the melting point stood at 145.2 °C. Besides, in series [1], the Emax amounted to 45% and the EC50 is 339 nM.

Molecule `COc1ccccc1COc1cc2n(n1)CCN(c1ccc(F)cc1)C2=O` [Example B29] had a melting point of 140.2 °C. In series [1], the maximal effect (Emax) is 36% and the 50% effective concentration (EC50) was 1200 nM.

`O=C1c2cc(OCc3ccccc3)nn2CCCN1c1ccc(F)cn1` [Example B50, 2-(benzyloxy)-5-(5-fluoropyridin-2-yl)-5,6,7,8-tetrahydro-4H-pyrazolo[1,5-a][1,4]diazepin-4-one] yielded a melting point of 112.1 to 119.1 °C. Moreover, in series [1], the Emax turned out to be 25% and the concentration for a half-maximal effect (EC50) was > 10000 nM.

Molecule `Cc1nccc(N2CCn3nc(OCc4ccccc4)cc3C2=O)n1` [Example B19] registered a melting point of 182.8 °C. In series [1], the maximal effect (Emax) is 47% and the EC50 is 871 nM.

As to `CC1CN(Cc2ccccc2)C(=O)c2cc(OCc3ccccc3)nn21` (single isomer, unassigned) [Example B62], in series [1], the maximal response (Emax) was 61% and the EC50 was 102 nM.

In turn, `O=C1c2cc(OCc3ccccc3)nn2CCN1c1cccc(C2CC2)n1` [Example B3, 2-(benzyloxy)-5-(6-cyclopropylpyridin-2-yl)-6,7-dihydropyrazolo[1,5-a]pyrazin-4(5H)-one] gave a melting point of 146.2 °C. For the same molecule, in series [1], the maximal response (Emax) was determined as 59% and the EC50 was 112 nM.

Regarding `O=C1c2cc(OCc3ccc(F)cc3)nn2CCN1c1ccc(F)cc1` [Example B32], the melting point came out at 155.8 °C. Also, in series [1], the maximal response (Emax) worked out at 18% and the EC50 is > 30200 nM.

Regarding `COc1cc(F)cc(CN2CCn3nc(OCc4ccccc4)cc3C2=O)c1` [Example B63], in series [1], the maximal response (Emax) is 62% and the EC50 is 646 nM.

For the molecule `O=C1c2cc(OCc3ccccc3)nn2CCCN1Cc1ccccc1` [Example B58, 5-benzyl-2-(benzyloxy)-5,6,7,8-tetrahydro-4H-pyrazolo[1,5-a][1,4]diazepin-4-one], in series [1], the Emax amounted to 57% and the EC50 was 380 nM.

Regarding `O=C1c2cc(OCc3ccccc3)nn2CCN1CC1CC(F)(F)C1` [Example B71], in series [1], the Emax was 59% and the concentration giving a half-maximal response (EC50) is 692 nM.

Regarding `CC1(CN2CCn3nc(OCc4ccccc4)cc3C2=O)COC1` [Example B55], the Emax in series [1] came to 37%.

Consider `COc1ccc(F)cc1CN1CCn2nc(OCc3ccccc3)cc2C1=O` [Example B68], for which, in series [1], the Emax came to 58% and the EC50 was 178 nM.
